Assay results: patent publication US8227434B1, “Materials and methods for treating oncological disorders” (H. Lee Moffitt Cancer Center & Research Institute, Inc., priority 2003, dated 2012)

What was measured:
LR5 cell line = LR5 cell line (Bellamy et al., 1991); cited from earlier work
[1] = tested on: 8226 cells adhered to FN (8226/FN); assay: Alkaline comet assay of melphalan induced DNA crosslinks; format: cell-based, human; settings: 2 h, FIG. 3B
Protocol: (§1) The alkaline comet assay was used to detect melphalan induced DNA crosslinks in 8226 myeloma cells. Cells cultured in suspension or adhered to FN were treated with varying doses of melphalan or vehicle control for two hours. Following drug treatment, single strand breaks were induced, by irradiating appropriate samples at 900 rads (MARK I model 68A irradiator). After drug treatment and irradiation, 5,000 cells were placed in a microcentrifuge tube containing 1 ml cold PBS, and the alkaline comet assay was performed as described by Kent et al. (1995). Fifty images were randomly captured per slide, and images by fluorescence microscopy were quantified using Optimus^R software as previously described (Hazlehurst et al., 2001; Kent et al., 1995).
(§2) The percent crosslinking was calculated as follows:
(§3) The data shown are the means of three independent experiments (n=50 images for each dose of each independent experiment). An analysis of variance (ANOVA) model was used to quantify the relationship between the response variable and the two independent variables.

[2] = tested on: 8226 cells in suspension (8226/SUS); assay: as above; format: cell-based, human; settings: 2 h
Protocol: as §1, §2, §3

8226/LR5 cell line = assay: as above; format: cell-based, human; settings: 2 h, FIG. 3A
Protocol: as §1, §2, §3

[3] = tested on: plasma cells from bone marrow aspirates of myeloma patients; assay: Melphalan-induced apoptosis of patient specimens (TUNEL, kappa/lambda staining); format: cell-based, human; settings: 10 patient specimens
Excerpt: To determine if CAM-DR occurred in patient specimens as well as myeloma cell lines, a double immunofluorescent assay was developed to simultaneously detect apoptotic plasma cells. After obtaining IRB approved consent, mononuclear cells from bone marrow aspirates obtained from patients with stage II and III myeloma were isolated by ficol-hypaque centrifugation and placed in αMEM media. One million cells/ml were adhered to FN or placed in suspension (0.1% poly-hema coated wells) for 2 hrs in serum free αMEM media. Following two hours of adhesion, fresh media with 15% FBS was added and cells were incubated for an additional 12-16 hrs. Following adhesion overnight, cells were treated with 200 uM melphalan for two hours and extracellular drug was removed and maintained in drug free media for an additional 24 hrs prior to fixation. Plasma cells were identified by either positive kappa or lambda staining (Vector laboratories, Burlingame, Calif.) and apoptotic plasma cells were identified by TUNEL analysis labeling using a commercially available kit (Intergen company, Purchase, N.Y., Cat. S7110). Fluorescence microscopy (Vysis, Downers Grove, Ill.) was used to count 500 total plasma cells per slide. Results following cell adhesion were compared to mononuclear cells exposed to melphalan in suspension culture.

8226 cells [4] = assay: Alkaline comet assay, ICL formation and removal; format: cell-based, human; settings: within 17 hours after maximum ICL formation; 2 h exposure to 25 μM melphalan
Protocol: (§4) The alkaline comet assay was used to detect melphalan induced DNA crosslinks in 8226 and 8226/LR5 myeloma cells (Hazlehurst et al., 2003). To examine the dose response, 2×10^5 cells were treated with 25 μM. 50 μM and 100 μM melphalan or vehicle control for two hours, washed in PBS and cultured in drug-free medium for another three hours culture. After drug treatment, samples were irradiated at 900 rads (MARK I model 68A irradiator). The alkaline comet assay was performed according to the manufacturer's instructions (Travegene). Fifty images per slide were randomly captured by fluorescence microscopy and images were quantified using LAI comet analysis software (Loats Associates, Inc. Westminster, Md.). The percent crosslinking was calculated as follows: Relative crosslinking=(1-(Comet moment drug treated-comet moment control/comet moment 900 rads-comet moment control))×100. To examine the ICL formation and removal, 8226 and LR5 were incubated in 25 μM or 50 μM melphalan and vehicle control, respectively for 2 hours after which they were cultured in drug free medium for various times. Cells were collected at 0 h, 3 h, 8 h and 23 h after 2 h drug treatment to perform the comet assay. […] An analysis of variance (ANOVA) model was used to quantify the relationship between the response variable and the two independent variables.

8226/LR5 cells = assay: Alkaline comet assay, ICL formation and removal; format: cell-based, human; settings: within 17 hours after maximum ICL formation; 2 h exposure to 50 μM melphalan
Protocol: as §4

8226 cells [5] = assay: Cell-cycle analysis (BrDU/PI flow cytometry); format: cell-based, human; settings: 48 h post 10 μM melphalan, 2 hour treatment
Protocol: (§5) To check the melphalan effect on cell cycle progressing, 8226 and LR5 were treated with 10 μM, 25 μM and 50 μM of melphalan and collected at 24 h and 48 h. Cells were then fixed with 70% EtOH at 4° C. overnight; and resuspended with 500 μl of PBS containing 25 μg/ml propidium Iodide (PI) (Sigma, St. Louis, Mo.) and 1.25 mg/ml Rnase A (Invetrogen) and incubated at 37° C. for 30 minutes in the dark. BrDU/PI staining was done as described (Hazlehurst et al., 2000). Briefly, within various of time post-drug treatment, cells were treated with 10 μM Bromodeoxyuridine (BrDU) at 37° C. for 30 mins, fixed in 70% ethanol., denatured (2MHCl) and neutralized (0.1M sodium borate). Cell were stained with anti-BrDU FITC antibody (BD, Phamingen), then resuspended with 500 μl of PBS containing 25 μg/ml propidium Iodide (PI) (Sigma, St. Louis, Mo.) and 1.25 mg/ml Rnase A (Invetrogen) and incubated at 37° C. for 30 mins in the dark. Nuclear staining was analyzed on a FACScan flow cytometer (Becton Dickinson, San Jose, Calif.). Watson (Pragmatic) from FlowJo 4.4.4 was used for DNA content analysis.

LR5 cells = assay: Cell-cycle analysis (BrDU/PI flow cytometry); format: cell-based, human; settings: 48 h post 10 μM melphalan, 2 hour treatment
Protocol: as §5

| SMILES | effect on resistance to melphalan (LR5 cell line) | percent crosslinking, 8226/FN Mean (SE) ([1]; 25 uM melphalan) | percent crosslinking, 8226/FN Mean (SE) ([1]; 50 uM melphalan) | percent crosslinking, 8226/FN Mean (SE) ([1]; 100 uM melphalan) | percent crosslinking, 8226/SUS Mean (SE) ([2]; 25 uM melphalan, FIG. 3A) | percent crosslinking, 8226/SUS Mean (SE) ([2]; 25 uM melphalan, FIG. 3B) | percent crosslinking, 8226/SUS Mean (SE) ([2]; 50 uM melphalan, FIG. 3B) | percent crosslinking, 8226/SUS Mean (SE) ([2]; 100 uM melphalan, FIG. 3A) | percent crosslinking, 8226/SUS Mean (SE) ([2]; 100 uM melphalan, FIG. 3B) | percent crosslinking, 8226/LR5 Mean (SE) (8226/LR5 cell line; 25 uM melphalan) | percent crosslinking, 8226/LR5 Mean (SE) (8226/LR5 cell line; 50 uM melphalan) | percent crosslinking, 8226/LR5 Mean (SE) (8226/LR5 cell line; 100 uM melphalan) | mean percent apoptosis of plasma cells ([3]; adhered to FN prior to treatment with 200 uM melphalan) [%] | mean percent apoptosis of plasma cells ([3]; maintained in cell suspension, 200 uM melphalan) [%] | removal of ICL (8226 cells [4]) | ICL removed (8226/LR5 cells) [%] | cell cycle effect (8226 cells [5]) | cell cycle effect (LR5 cells) |
| --- | --- | --- | --- | --- | --- | --- | --- | --- | --- | --- | --- | --- | --- | --- | --- | --- | --- | --- |
| CCCCS(=N)(=O)CCC(N)C(=O)O (stereo not drawn) [buthionine sulfoximine] | partially reversed resistance to melphalan |  |  |  |  |  |  |  |  |  |  |  |  |  |  |  |  |  |
| N[C@@H](Cc1ccc(N(CCCl)CCCl)cc1)C(=O)O [melphalan, Melphalan] |  | 29.11 (0.888) % | 47.73 (2.141) % | 72.03 (2.09) % | 20.31 (9.579) % | 22.40 (9.458) % | 46.27 (5.850) % | 67.31 (4.110) % | 70.67 (6.175) % | −4.49 (16.687) % | 14.02 (8.648) % | 47.32 (9.121) % | 27.7 | 55.6 | no significant removal of ICL | 40 | arrested in G2/M phase | continue cell cycle progression |
